Data on three compounds can be found in patent publication US8076287B2, “Cyclic hexadepsipeptides, processes for their production and their use as pharmaceuticals” (priority 2006, dated 2011).

The test system of one data set is C. diphtheriae HER1356. As to the kind of experiment: MIC broth dilution, antibacterial activity. In kind it is cell-based. As to conditions: Corynebacterium diphtheriae; C. diphtheriae HER1356 (strain C7); MH medium. In general terms: Broth dilution looks for growth in wells or tubes with falling amounts of substance.
The test system of another data set is C. perfringens HER1390. As to the kind of experiment: microbe, parasite or virus in culture. Conditions: Clostridium perfringens. In kind it is cell-based.
Data set [1] relates to MDA-MB-231 (mammary gland adenocarcinoma). In words: In vitro cytotoxic activity (propidium iodide GI50). The class given is cell-based. Conditions: Homo sapiens, 96 hrs.
Data set [2] relates to S. pneumoniae LSPQ 3412 (Penicillin sensitive). As to the kind of experiment: MIC broth dilution, antibacterial activity. The class given is cell-based. Conditions: Streptococcus pneumoniae, MH + 2% lysed horse blood.
The subject of the next data set is SF-268 (CNS). In words: In vitro cytotoxic activity (propidium iodide GI50). The class given is cell-based. Conditions: Homo sapiens, 96 hrs.
A short description of data set [3]: In vivo acute toxicity (MTD). Details: species or system CD-1 nu/nu mice. As to conditions: CD-1 nu/nu, mouse, saline with 10% EtOH and 7.5% polysorbate 80, read-out: maximum tolerated dose (MTD). How it is done: In vivo toxicity: The acute toxicity in CD-1 nu/nu mice of Compound 1 was determined in a saline solution comprising 10% EtOH and 7.5% polysorbate 80. When given i.p., the maximum tolerated dose (MTD) was ≧5 mg/kg. The MTD was 2.5 mg/kg when Compound 1 was administered i.v.

The next data set concerns Sheep red blood cells. In words: In vitro toxicity: hemolytic activity. In kind it is cell-based. As to conditions: 2 hrs at 37° C., prepared in DMSO. How it is done: In vitro toxicity: Sheep red blood cells were exposed to Compound 1 for 2 hrs at 37° C. at concentrations ranging from 2 to 64 μg/mL. Hemolytic activity was determined by monitoring the amount of hemoglobin released spectrophotometrically.

The subject of data set [4] is S. aureus MRS3 ATCC ™ 700699 (MRSA-hVISA). In words: MIC broth dilution, antibacterial activity. In kind it is cell-based. Conditions: Staphylococcus aureus, MH medium, 35° C., 16 to 20 hours.
Data set [5] concerns PC-3 (prostate adenocarcinoma). As to the kind of experiment: In vitro cytotoxic activity (propidium iodide GI50). As to conditions: 96 hrs. In kind it is cell-based.
For a further data set, the system named is B. subtilis ATCC ™ 23857. In words: MIC broth dilution, antibacterial activity. In kind it is cell-based. As to conditions: Bacillus subtilis, ATCC23857, BHI+ medium.
The test system of data set [6] is Enterococcus faecalis ATCC ™ 51299 (VRE). In words: MIC broth dilution, antibacterial activity. In kind it is cell-based. Conditions: BHI+ medium.
Data set [7] has as its system human MX-1 breast carcinoma xenograft. In words: In vivo efficacy in human breast cancer xenograft model. Details: species or system Harlan female athymic nude mice. The method, then: The antitumor activity of Compound 1 was tested in vivo in a human MX-1 breast carcinoma model in mice, formulated in 10% ethanol, 7.5% ethanolic polysorbate 80 (1 g/mL in ethanol), and 82.5% saline. Harlan female athymic nude mice (12 weeks of age on Day 1 (D1)) were used for this study. Human MX-1 carcinoma was maintained in athymic nude mice by serial engraftment. A tumor fragment (1 mm^3) was implanted subcutaneously into the right flank of each test mouse. Tumors were monitored twice weekly and then daily as their mean volume approached 80-120 mm^3.
On D1, animals were sorted into treatment groups 1 to 4 (groups 1 to 3: 9 mice; group 4:10 mice), with tumor sizes of 63-144 mm^3 and group mean tumor sizes of about 99 mm^3. Tumor volumes were calculated as (width^2×length) divided by 2. Tumor weight was estimated with the assumption that 1 mg is equivalent to 1 mm^3 of tumor volume.
Starting on Day 1, each group was treated with dosing volumes of 0.2 mL/20-g mouse in Groups 1 and 2, and 0.1 mL/20-g mouse for Groups 3 and 4, scaled to the body weight of each animal, and according to the following protocol:
Tumor measurements were taken twice weekly using calipers and were converted to tumor weight. Tumor weight was estimated with the assumption that 1 mg is equivalent to 1 mm^3 of tumor volume (tumor volume was determined as above). Body weights were also recorded daily for Day 1 to 5, and then twice weekly.
Each animal was euthanized when its neoplasm reached the predetermined endpoint size (1,500 mm^3). The “time to endpoint” (TTE) for each mouse was calculated by the following equation:
[formula] where “TTE” is expressed in days, “endpoint volume” is in mm^3, “b” is the intercept, and “m” is the slope of the line obtained by linear regression of a log-transformed tumor growth data set. The data set comprised the first observation that exceeded the study endpoint volume and the three consecutive observations that immediately preceded the attainment of the endpoint volume.
Treatment efficacy was determined from “tumor growth delay” (TGD), which is defined as the increase in “T” the median TTE for a treatment group compared to “C” the median for control group 1: TGD=T−C, expressed in days, or as a percentage of the median TTE of the control group (% TGD=(TGD/C)×100).
The “percentage of tumor growth inhibition” (TGI) is calculated as:
[formula] wherein MTVtreated and MTVvehicle are respectively the “median tumor volume” for the animals treated with Compound 1 and animals receiving the vehicle, on day 18 and day 0. Two-tailed statistical analyses were done using GraphPad Prism™ software.
The “MTV(n)” is defined as the median tumor volume on Day 53 in the number of animals remaining, n, whose tumors have not attained endpoint volume.

The subject of data set [8] is Enterococcus faecalis ATCC ™ 29212 (VSE). In words: MIC broth dilution, antibacterial activity. In kind it is cell-based. As to conditions: ATCC29212, BHI+ medium.
Data set [9] has as its system HT-29 (colorectal carcinoma). As to the kind of experiment: In vitro cytotoxic activity (propidium iodide GI50). As to conditions: Homo sapiens, 96 hrs. The class given is cell-based.
A further data set relates to C. difficile ATCC ™ 9689. In words: microbe, parasite or virus in culture. In kind it is cell-based, Clostridium difficile. As to conditions: Clostridioides difficile, ATCC9689.
For data set [10], the system named is HUVEC (human umbilical vein endothelial cells). As to the kind of experiment: In vitro cytotoxic activity (propidium iodide GI50). Conditions: 72 hours. In kind it is cell-based.
The test system of data set [11] is Candida albicans ATCC™10231. As to the kind of experiment: Antifungal activity, NCCLS M27-A broth dilution. The class given is cell-based. As to conditions: ATCC10231, after 48 hours, RPMI 1640. The method, then:
Testing of antifungal activity was performed according to NCCLS method (NCCLS. Reference Method for Broth Dilution Antifungal Susceptibility Testing of Yeasts; Approved Standard. NCCLS document M27-A (ISBN 1-56238-328-0). NCCLS, 940 West Valley Road, Suite 1400, Wayne, Pa. 19087-1898 USA). Compound 1 was prepared as 100× stock solutions in DMSO, with concentrations ranging from 3.2 mg/mL to 0.003 mg/mL (a two-fold dilution series over 11 points). An aliquot of each 100× stock solution was diluted 50-fold in test medium described below to give a set of eleven (11) 2× solutions. 50 μL of each of the eleven 2× solutions was aliquoted into the corresponding well of a 12-well row, with the final well reserved for medium alone control. Inoculum density for the Candida albicans ATCC™10231 indicator strain was adjusted to OD600=0.1 in 5 mL 0.85% saline, then further diluted 1/1000 in RPMI 1640 medium. 50 μL of the final dilution (in test medium) of each indicator strain was added to each well of a 12-well row. This brings the final dilution of the test article or control compound in solution to 1×. The final inoculum was approximately 5×10^4 CFU/ml.

Another data set concerns M. Luteus ATCC ™ 9341. In words: MIC broth dilution, antibacterial activity. In kind it is cell-based. Conditions: Micrococcus luteus, ATCC9341, MH medium.
Data set [12] relates to S. pneumoniae LSPQ 3349 (Penicillin resistant). As to the kind of experiment: MIC broth dilution, antibacterial activity. The class given is cell-based. Conditions: Streptococcus pneumoniae, MH + 2% lysed horse blood.
For data set [13], the system named is S. epidermidis ATCC ™ 12228. As to the kind of experiment: MIC broth dilution, antibacterial activity. The class given is cell-based. As to conditions: Staphylococcus epidermidis, ATCC12228, MH medium, 35° C., 16 to 20 hours.
For data set [14], the system named is S. aureus ATCC ™ 6538P (MSSA). As to the kind of experiment: MIC broth dilution, antibacterial activity. In kind it is cell-based. As to conditions: Staphylococcus aureus, MH medium, 35° C., 16 to 20 hours.

Values after ≈ are worked out from the molar mass of the structure shown. Read-outs that look alike come from different tables or passages of the source.

One may read the GI50 as the concentration giving 50% growth inhibition. By MTD is commonly meant the highest dose tested that stayed within the study's limit of toxicity. In the case of `CCC1OC(O)(C(C)(O)C(=O)NC2C(=O)N3NCCCC3C(=O)N(O)CC(=O)N3NCCCC3C(=O)N3CCC(C)(O)C3C(=O)N(O)C(C(C)C)C(=O)OC2C(C)C)CCC1CC(C)C` (centres unmarked) [Compound 1], the MIC was below 0.008 µg/mL against C. diphtheriae HER1356; below 0.008 µg/mL against C. perfringens HER1390; 0.156 µg/mL in data set [2]; 0.5 µg/mL (≈ 0.54 µM) in data set [4]; 0.004 µg/mL (≈ 0.00432 µM) against B. subtilis ATCC ™ 23857; 1 µg/mL (≈ 1.08 µM) in data set [6]. Further, the MIC in data set [8] was 0.5 µg/mL (≈ 0.54 µM); against C. difficile ATCC ™ 9689, below 0.008 µg/mL; in data set [11] it was 8 µg/mL (≈ 8.65 µM); in the data set with M. Luteus ATCC ™ 9341 it was 0.063 µg/mL (≈ 0.0681 µM); in data set [12], 0.031 µg/mL; in data set [13], 0.094 µg/mL (≈ 0.102 µM). Also, the MIC in [14] came out at 0.031 µg/mL (≈ 0.0335 µM). Besides, the GI50 came to 28 nM in data set [1]; 25 nM in the data set with SF-268 (CNS); 66 nM in data set [5]; 37 nM in data set [9]; 19 nM in data set [10]. For the same compound, the MTD in [3] (ip) was at least 5 mg/kg; in data set [3] (iv), 2.5 mg/kg. Moreover, the “hemolytic activity (concentration)” value with Sheep red blood cells is 12.8 µM; in the data set on Sheep red blood cells (2 to 64 μg/mL tested), 11.8 µg/mL. Moreover, in data set [7] (1 mg/kg i.p., median tumor volume vs vehicle, day 18), the “percentage of tumor growth inhibition (TGI)” value amounted to 51.6%. Further, in data set [7] (1 mg/kg i.p., n=3 animals not at endpoint volume), the “MTV(3), median tumor volume on Day 53 in animals remaining” value was 6 mm^3. For the same compound, the body weight loss in data set [7] (1 mg/kg i.p., on Day 8, mean body weight) worked out at 13%. In [7] (1 mg/kg i.p., when compared with vehicle), the “tumor growth delay (TGD)” value worked out at 82%. Further, the “body weight loss during q4d dosing” value in data set [7] (period Compound 1 was given once every four days) is given as “no severe body weight loss”.

In the case of `COc1cccc2c1C(=O)c1c(O)c3c(c(O)c1C2=O)C[C@@](O)(C(C)=O)C[C@@H]3O[C@H]1C[C@H](N)[C@H](O)[C@H](C)O1` [Daunorubicin, reference compound], the GI50 is 9 nM in data set [1], 19 nM in the data set with SF-268 (CNS), 11 nM in data set [5] and 20 nM in data set [9].

With `CN[C@H](CC(C)C)C(=O)N[C@H]1C(=O)N[C@@H](CC(N)=O)C(=O)N[C@H]2C(=O)N[C@H]3C(=O)N[C@H](C(=O)N[C@H](C(=O)O)c4cc(O)cc(O)c4-c4cc3ccc4O)[C@H](O)c3ccc(c(Cl)c3)Oc3cc2cc(c3O[C@@H]2O[C@H](CO)[C@@H](O)[C@H](O)[C@H]2O[C@H]2C[C@](C)(N)[C@H](O)[C@H](C)O2)Oc2ccc(cc2Cl)[C@H]1O` [Vancomycin, reference compound], the MIC against C. diphtheriae HER1356 turned out to be 0.5 µg/mL (≈ 0.345 µM); in the data set with C. perfringens HER1390, 0.5 µg/mL (≈ 0.345 µM); in data set [2], 0.25 µg/mL; against B. subtilis ATCC ™ 23857 it was 0.25 µg/mL (≈ 0.173 µM); against C. difficile ATCC ™ 9689, 0.25 µg/mL (≈ 0.173 µM); in the data set with M. Luteus ATCC ™ 9341 it was 2 µg/mL (≈ 1.38 µM). In addition, in data set [12], the MIC is 0.5 µg/mL.
